Values of other authors in paper PMC11249953, “c-KIT inhibitors reduce pathology and improve behavior in the Tg(SwDI) model of Alzheimer’s disease” (Life Science Alliance, 2024).
pIC50: −log10 of the molar value. Where two headings read alike, the source gives them in different places.

What was measured:
[1] = ref Li et al, 2020, cited from earlier work
APPswe/PSEN1dE9 mice = test system: APPswe/PSEN1dE9 mice; parameters: method as in Li et al, 2020; details: chronic oral treatment, ref Li et al, 2020; cited from earlier work
c-KIT = test system: c-KIT; parameters: method as in Dubreuil et al, 2009; details: ref Dubreuil et al, 2009; cited from earlier work

Which brain penetrance [1] does the source give for `Cc1ccc(NC(=O)c2ccc(CN3CCN(C)CC3)cc2)cc1Nc1nc(-c2cccnc2)cs1` [Masitinib] here?
The brain penetrance was “poor brain penetrance”.

What about the brain penetrance ([1]; listed as masitinib) of the same molecule?
Its brain penetrance is “poor brain penetrant”.

And the amyloid-β and neuroinflammation (APPswe/PSEN1dE9 mice)?
The amyloid-β and neuroinflammation was “not reducing amyloid-β or attenuating neuroinflammation”.

What about the spatial learning performance (APPswe/PSEN1dE9 mice) of the same molecule?
The spatial learning performance was “reverse spatial learning performance”.
